In patent publication EP4603105A1, “PHARMACEUTICAL COMPOSITION CONTAINING CYCLIC COMPOUND HAVING SELECTIVE KRAS INHIBITORY EFFECT AGAINST HRAS AND NRAS” (CHUGAI SEIYAKU KABUSHIKI KAISHA, priority 2022, dated 2024):
Where a SMILES comes first, the peptide text is derived from it. Bridges are numbered along the chain shown (N, C = ends). [ ]: non-standard residue; d: D form. The star is where a group is joined. hPhe(3-Cl-4-CF3) = N[C@@H](CCc1ccc(C(F)(F)F)c(Cl)c1)C(=O)O; NPrPhe(4-CF3) = CCCN[C@@H](Cc1ccc(C(F)(F)F)cc1)C(=O)O; NPrPhe(4-Me) = CCCN[C@@H](Cc1ccc(C)cc1)C(=O)O; NEtPhe(4-Me) = CCN[C@@H](Cc1ccc(C)cc1)C(=O)O; NMeGly(cPent) = CN[C@H](C(=O)O)C1CCCC1; cisHyp = O=C(O)[C@@H]1C[C@H](O)CN1; NMeD = CN[C@@H](CC(=O)O)C(=O)O; NMeL = CN[C@@H](CC(C)C)C(=O)O; Morpholide = C1CN(*)CCO1; NMeA = CN[C@@H](C)C(=O)O; Ac5c = NC1(C(=O)O)CCCC1; Aze = O=C(O)[C@@H]1CCN1; Sar = CNCC(=O)O

Tests used:
[1] = target: HRAS wild-type protein (Homo sapiens, UniProt P01112); assay: Binding to HRAS by surface plasmon resonance (SPR), KD and KD ratio to KRAS
Procedure, shortened: (§1)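 Measured at 30°C: SPR with GDP-loaded, E. coli-expressed biotin-Avi RAS captured (~100–300 RU), ascending 75 s compound injections, HBS pH 7.4 with GDP, MgCl2, 4% DMSO. KD from 1:1 fit.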

[2] = tested on: human lung cancer strain NCI-H441; assay type: cell-based
Procedure, shortened: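 Signal came from […] measured per well once the reagent was added. Beforehand, cells were cultured at 37°C and 5% carbon dioxide on a compound series serially diluted in dimethyl sulfoxide.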

[3] = target: GDP-bound NRAS wild-type protein (Homo sapiens, UniProt P01111); assay: Binding to NRAS by surface plasmon resonance (SPR), KD and KD ratio to KRAS
Procedure, shortened: as §1

[4] = ratio of KD for HRAS wild-type protein to KD for KRAS
[5] = ratio of KD for GDP-bound NRAS wild-type protein to KD for KRAS
[6] = ratio of the KD value with respect to HRAS wild-type protein to the KD value with respect to KRAS
[7] = ratio of the KD value with respect to GDP-bound NRAS wild-type protein to the KD value with respect to KRAS

GDP-bound NRAS wild-type protein, sequence (P01111 whole entry): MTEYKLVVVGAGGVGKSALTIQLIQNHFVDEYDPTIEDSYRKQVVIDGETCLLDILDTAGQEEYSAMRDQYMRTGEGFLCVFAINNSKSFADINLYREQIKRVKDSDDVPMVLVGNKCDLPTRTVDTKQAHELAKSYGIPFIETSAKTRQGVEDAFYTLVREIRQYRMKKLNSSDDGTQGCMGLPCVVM
HRAS wild-type protein, sequence (P01112 whole entry): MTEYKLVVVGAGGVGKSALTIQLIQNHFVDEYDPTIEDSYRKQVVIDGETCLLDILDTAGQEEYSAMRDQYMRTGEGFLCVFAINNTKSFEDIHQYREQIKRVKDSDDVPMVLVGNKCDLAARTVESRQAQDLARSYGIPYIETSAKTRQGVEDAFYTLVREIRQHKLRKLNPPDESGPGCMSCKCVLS

Compound | IC50 [2] [nM] | HRAS /KRAS [1, 4] | NRAS /KRAS [3, 5] | HRAS /KRAS [1, 6] | NRAS /KRAS [3, 7] | HRAS /KRAS ([1]; ratio of KD value for HRAS wild-type protein to KD value for KRAS (SPR)) | NRAS /KRAS ([3]; ratio of KD value for GDP-bound NRAS wild-type protein to KD value for KRAS (SPR))
CCC[C@H]1C(=O)N[C@@H]([C@@H](C)CC)C(=O)N(C2CC2)CC(=O)N(C)[C@H]2C/C=C\CCN(C2=O)[C@@H](Cc2ccc(C)cc2)C(=O)N(C)CC(=O)N[C@@H](CCc2ccc(C3CC3)c(Cl)c2)C(=O)N2C[C@H](OCC)C[C@H]2C(=O)NC2(CC(C)(C)C2)C(=O)N(C)[C@@H](C2CCCC2)C(=O)N(C)[C@H](C(=O)N(C)C)CC(=O)N1C [PP2885] | 80.6 | A (a compound having 10 or more and less than 20 is denoted as A) | A (a compound having 10 or more and less than 20 is denoted as A) |  |  |  | 
CCC[C@H]1C(=O)N[C@@H]([C@@H](C)CC)C(=O)N(C)CC(=O)N(C)[C@H]2CCCCN(C2=O)[C@@H](Cc2ccc(C(F)(F)F)cc2)C(=O)N(C)CC(=O)N[C@@H](CCc2cc(F)c(C(F)(F)F)c(F)c2)C(=O)N2C[C@H](OCC)C[C@H]2C(=O)NC2(CCC2)C(=O)N(C)[C@@H](C2CCCC2)C(=O)N(C)[C@H](C(=O)N(C)C)CC(=O)N1C [PP0694] | 3.5 |  |  | C (A compound having a KD ratio of 0.1 or more and less than 3 is denoted as C) | C (A compound having a KD ratio of 0.1 or more and less than 3 is denoted as C) |  | 
CCO[C@@H]1C[C@H]2C(=O)NC3(CC(C)(C)C3)C(=O)N(C)[C@@H](C3CCCC3)C(=O)N(C)[C@H](C(=O)N(C)C)CC(=O)N(C)[C@@H](CC(C)C)C(=O)N[C@@H]([C@@H](C)CC)C(=O)N(C)CC(=O)N(C)[C@H]3C/C=C\CCN(C3=O)[C@@H](Cc3ccc(C(F)(F)F)cc3)C(=O)N(C)CC(=O)N[C@@H](CCc3cc(F)c(C(F)(F)F)c(F)c3)C(=O)N2C1 [PP1650] | 1.2 |  |  |  |  | A (a compound having 10 or more and less than 20 is denoted as A) | A (a compound having 10 or more and less than 20 is denoted as A)
CCO[C@@H]1C[C@H]2C(=O)NC3(CC(C)(C)C3)C(=O)N(C)[C@@H](C(CC)CC)C(=O)N(C)[C@H](C(=O)N(C)C)CC(=O)N(C)[C@@H](C(C)C)C(=O)N[C@@H]([C@@H](C)CC)C(=O)N(C)CC(=O)N(C)[C@H]3C/C=C\CCN(C3=O)[C@@H](Cc3ccc(C(F)(F)F)cc3)C(=O)N(C)CC(=O)N[C@@H](CCc3ccc(C(F)(F)F)c(OC)c3)C(=O)N2C1 [PP2165] | 17.5 |  |  | A (a compound having 10 or more and less than 20 is denoted as A) | A (a compound having 10 or more and less than 20 is denoted as A) |  | 
CCO[C@@H]1C[C@H]2C(=O)NC3(CC(C)(C)C3)C(=O)N(C)[C@@H](C3CCCC3)C(=O)N(C)[C@H](C(=O)N(C)C)CC(=O)N(C)[C@@H](C)C(=O)N[C@@H]([C@@H](C)CC)C(=O)N(C)CC(=O)N(C)[C@H]3CCCCCN(C3=O)[C@@H](Cc3ccc(C(F)(F)F)cc3)C(=O)N(C)CC(=O)N[C@@H](CCc3cc(F)c(C(F)(F)F)c(F)c3)C(=O)N2C1 [PP0723] | 10.8 |  |  | B (a compound having 3 or more and less than 10 is denoted as B) | B (a compound having 3 or more and less than 10 is denoted as B) |  | 
C=CC[C@H]1C(=O)N[C@@H]([C@@H](C)CC)C(=O)N(C)CC(=O)N(C)[C@H]2CCCCCN(C2=O)[C@@H](Cc2ccc(C(F)(F)F)cc2)C(=O)N(C)CC(=O)N[C@@H](CCc2cc(F)c(C(F)(F)F)c(F)c2)C(=O)N2C[C@H](OCC)C[C@H]2C(=O)NC2(CCC2)C(=O)N(C)[C@@H](C2CCCC2)C(=O)N(C)[C@H](C(=O)N(C)C)CC(=O)N1C [PP0665] | 15.6 |  |  | B (a compound having 3 or more and less than 10 is denoted as B) | B (a compound having 3 or more and less than 10 is denoted as B) |  | 

The next lines start with results.

IC50 [2] [nM] | Compound | HRAS /KRAS [1, 4] | NRAS /KRAS [3, 5] | HRAS /KRAS [1, 6] | NRAS /KRAS [3, 7] | HRAS /KRAS ([1]; ratio of KD value for HRAS wild-type protein to KD value for KRAS (SPR)) | NRAS /KRAS ([3]; ratio of KD value for GDP-bound NRAS wild-type protein to KD value for KRAS (SPR))
5 | CCCN1C(=O)[C@@H]2CCN2C(=O)[C@H](C)N(C)C(=O)[C@H]([C@@H](C)CC)NC(=O)[C@H](CC(C)C)N(C)C(=O)C[C@@H](C(=O)N2CCOCC2)N(C)C(=O)[C@H](C2CCCC2)N(C)C(=O)C2(CCCC2)NC(=O)[C@@H]2C[C@H](OCC)CN2C(=O)[C@H](CCc2ccc(C(F)(F)F)c(Cl)c2)NC(=O)CN(C)C(=O)[C@@H]1Cc1ccc(C(F)(F)F)cc1 [PP0242] ([NMeL]I[NMeA][Aze][NPrPhe(4-CF3)][Sar][hPhe(3-Cl-4-CF3)][cisHyp](Et)[Ac5c][NMeGly(cPent)][NMeD]-Morpholide; lactam N-11) | C (A compound having a KD ratio of 0.1 or more and less than 3 is denoted as C) | C (A compound having a KD ratio of 0.1 or more and less than 3 is denoted as C) |  |  |  | 
4.8 | CC[C@H](C)[C@@H]1NC(=O)[C@H](C)N(C)C(=O)C[C@@H](C(=O)N2CCOCC2)N(C)C(=O)[C@H](C2CCCC2)N(C)C(=O)C2(CCCC2)NC(=O)[C@@H]2CCCN2C(=O)[C@H](CCc2ccc(C(F)(F)F)c(Cl)c2)NC(=O)CN(C)C(=O)[C@H](Cc2ccc(C)cc2)N(CC)C(=O)[C@@H]2CCN2C(=O)[C@H](C)N(C)C1=O [PP0007] ([NMeA]I[NMeA][Aze][NEtPhe(4-Me)][Sar][hPhe(3-Cl-4-CF3)]P[Ac5c][NMeGly(cPent)][NMeD]-Morpholide; lactam N-11) | C (A compound having a KD ratio of 0.1 or more and less than 3 is denoted as C) | C (A compound having a KD ratio of 0.1 or more and less than 3 is denoted as C) |  |  |  | 
2.4 | CCO[C@@H]1C[C@H]2C(=O)NC3(CCCC3)C(=O)N(C)[C@@H](C3CCCC3)C(=O)N(C)[C@H](C(=O)N(C)C)CC(=O)N(C)[C@@H](CC(C)C)C(=O)N[C@@H]([C@@H](C)CC)C(=O)N(C)CC(=O)N(C)[C@H]3CCCCN(C3=O)[C@@H](Cc3ccc(C(F)(F)F)cc3)C(=O)N(C)CC(=O)N[C@@H](CCc3cc(F)c(C(F)(F)F)c(F)c3)C(=O)N2C1 [PP0579] |  |  | B (a compound having 3 or more and less than 10 is denoted as B) | C (A compound having a KD ratio of 0.1 or more and less than 3 is denoted as C) |  | 
24.8 | CC[C@H](C)[C@@H]1NC(=O)[C@H](CC(C)C)N(C)C(=O)C[C@@H](C(=O)N2CCOCC2)N(C)C(=O)[C@H](C2CCCC2)N(C)C(=O)C2(CCCC2)NC(=O)[C@H](C)N(CC)C(=O)[C@H](CCc2cc(F)c(C(F)(F)F)c(F)c2)NC(=O)CN(C)C(=O)[C@H](Cc2ccc(C(F)(F)F)cc2)N2CCCC[C@@H](C2=O)N(C)C(=O)CN(C)C1=O [PP0589] |  |  | B (a compound having 3 or more and less than 10 is denoted as B) | B (a compound having 3 or more and less than 10 is denoted as B) |  | 
1.7 | CCCN1C(=O)[C@@H]2CCN2C(=O)[C@H](C)N(C)C(=O)[C@H]([C@@H](C)CC)NC(=O)[C@H](CC(C)C)N(C)C(=O)C[C@@H](C(=O)N2CCOCC2)N(C)C(=O)[C@H](C2CCCC2)N(C)C(=O)C2(CCCC2)NC(=O)[C@@H]2CCCN2C(=O)[C@H](CCc2ccc(C(F)(F)F)c(Cl)c2)NC(=O)CN(C)C(=O)[C@@H]1Cc1ccc(C)cc1 [PP0052] ([NMeL]I[NMeA][Aze][NPrPhe(4-Me)][Sar][hPhe(3-Cl-4-CF3)]P[Ac5c][NMeGly(cPent)][NMeD]-Morpholide; lactam N-11) | B (a compound having 3 or more and less than 10 is denoted as B) | C (A compound having a KD ratio of 0.1 or more and less than 3 is denoted as C) |  |  |  | 
